The values that follow come from patent US11369613B2, “Salts and solid form of a BTK inhibitor” (PRINCIPIA BIOPHARMA INC., priority 2014, dated 2022).

A value given as a limit tells only on which side of the number the result lay.

Data set [1] is described as follows: Stability of the free base on drying (thermal stability). The conditions noted are these: drying under vacuum, at less than 45° C. The class given is physicochemical. The source says:
Isolation of compound (I) as described in PCT Application No. PCT/US2013058614 is less than ideal for large scale synthesis and isolation and therefore handling and formulating of the resulting compound can present challenges. In addition, when isolated as described in PCT Application No. PCT/US2013058614, the isolated compound (I) retains a higher percentage of residual solvent after drying under vacuum at ambient temperature than that allowed under the International Conference on Harmonisation of Technical Requirements for Registration of Pharmaceuticals for Human Use (“ICH”) guidelines (e.g., -ICH limit for class 2 solvents ranges between 50-3880 ppm and for class 3 solvents <5000 ppm).
However, the solids obtained by this method contained high residual solvents (3.9 wt % isopropylacetate and 1.7 wt % heptane).

The next data set addresses T1, BTK (Canis lupus familiaris, UniProt A0A8I3P3Z9).
T1 construct: from tissue; host or cells: blood of the treated dog
The data set is described as follows: BTK occupancy in blood in the dog pemphigus foliaceus study. The class given is in vivo. Conditions: oral 500 mg daily, blood taken 24 hours after the first dose, read-out: level of BTK occupancy.

The next data set has as its system pemphigus foliaceus. The data set is described as follows: Dog pemphigus foliaceus study. The class given is in vivo.
Data set [2] deals with ANCA-associated vasculitis. Conditions: cited from earlier work.
For another data set, the system named is pemphigus vulgaris. Conditions: cited from earlier work.
A further data set concerns chronic SLE. The conditions noted are these: cited from earlier work.

T1 sequence (A0A8I3P3Z9 1-664): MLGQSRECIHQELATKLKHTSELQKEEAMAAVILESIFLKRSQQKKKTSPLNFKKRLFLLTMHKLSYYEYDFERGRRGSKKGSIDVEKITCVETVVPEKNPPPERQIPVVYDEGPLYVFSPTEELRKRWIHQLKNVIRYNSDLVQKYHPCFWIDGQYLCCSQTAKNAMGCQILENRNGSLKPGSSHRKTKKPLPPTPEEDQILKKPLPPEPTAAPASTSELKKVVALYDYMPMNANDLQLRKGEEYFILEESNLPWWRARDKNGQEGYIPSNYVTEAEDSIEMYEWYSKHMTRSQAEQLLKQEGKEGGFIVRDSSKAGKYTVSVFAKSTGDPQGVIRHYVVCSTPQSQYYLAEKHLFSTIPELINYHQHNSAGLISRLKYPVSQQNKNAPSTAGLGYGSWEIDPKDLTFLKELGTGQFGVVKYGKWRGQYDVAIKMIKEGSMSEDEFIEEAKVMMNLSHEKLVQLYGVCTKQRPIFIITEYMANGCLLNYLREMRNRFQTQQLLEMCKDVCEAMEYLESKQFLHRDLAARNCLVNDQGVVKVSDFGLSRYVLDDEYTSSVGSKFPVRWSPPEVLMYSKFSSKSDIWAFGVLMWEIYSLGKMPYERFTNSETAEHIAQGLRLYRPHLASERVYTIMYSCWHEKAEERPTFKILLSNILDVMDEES

`CC(C)(C=C(C#N)C(=O)N1CCC[C@@H](n2nc(-c3ccc(Oc4ccccc4)cc3F)c3c(N)ncnc32)C1)N1CCN(C2COC2)CC1` [Compound (I), 2-[(3R)-3-[4-amino-3-(2-fluoro-4-phenoxy-phenyl)pyrazolo[3,4-d]pyrimidin-1-yl]piperidine-1-carbonyl]-4-methyl-4-[4-(oxetan-3-yl)piperazin-1-yl]pent-2-enenitrile]: the results for the “Stability of free base (degradation products during drying)” value in data set [1] and in data set [1] (listed as free base form) were “thermal instability” and “not very stable”, respectively.
As for `CC(C)(C)/C=C(\C#N)C(=O)N1CCC[C@@H](n2nc(-c3ccc(Oc4ccccc4)cc3F)c3c(N)ncnc32)C1` [(R,E)-2-(3-(4-amino-3-(2-fluoro-4-phenoxy-phenyl)-1H-pyrazolo[3,4-d]-pyrimidin-1-yl)piperidine-1-carbonyl)-4,4-dimethylpent-2-enenitrile], the receptor occupancy at 500 mg on BTK was ~70%. The “Time to clinical response (improved eating and ambulation)” value in the data set with pemphigus foliaceus (30 kg Doberman, oral 500 mg daily, monotherapy) is given as “within three days”. For the same compound, the “Manifestation of pre-clinical response compared with systemic corticosteroid therapy” value in the data set on pemphigus foliaceus (dog with pemphigus foliaceus, single agent) is “as rapid and comparable to that observed with systemic corticosteroid therapy”. The “Corticosteroid-like adverse effects (polyuria, polydipsia, polyphagia, weight gain)” value is listed as “No well-known corticosteroid-like adverse effects” in the data set on pemphigus foliaceus (dog, oral 500 mg daily) and “none of the well-known corticosteroid-like adverse effects” with pemphigus foliaceus (dog, oral 500 mg daily, listed as (R,E)-2-(3-(4-amino-3-(2-fluoro-4-phenoxyphenyl)-1H-pyrazolo [3,4-d]-pyrimidin-1))). The “Skin lesions by four weeks” value in the data set on pemphigus foliaceus (dog, oral 500 mg daily, four weeks) is “completely healed”. The “Clinical status at one week follow up visit” value in the data set with pemphigus foliaceus (dog, oral 500 mg daily, one week) was “improved general health and commencement of pemphigus lesion healing”. Moreover, in the data set with pemphigus foliaceus (dog, oral 500 mg daily, two weeks), the “Clinical status after two weeks of treatment” value was “general health of the dog was excellent and skin lesions continued to improve”.
As to Rituximab: anti-CD20 agent, in data set [2], the “Onset of effect” value was “Rituximab has delayed effect in ANCA-”. Also, in the data set with pemphigus vulgaris, the “Onset of effect” value is on record as “Rituximab has delayed effect in pemphigus” and the “Time of maximal effect” value is recorded as “vulgaris with maximal effect at 8-12 weeks”.
For Belimumab: an anti-Blys antibody, in the data set with chronic SLE, the “Effect on improvement of chronic SLE” value was “modest and delayed effect on improvement”. Besides, in the data set on chronic SLE (week 40-52), the “Patients able to reduce corticosteroid use to <7.5 mg of prednisone” value is given as ≤ 21% of patients (Benlysta US Product.
